Test system: MV-4-11 cells
Assay: Gene expression microarray analysis (Affymetrix PrimeView) and GSEA
Type: cell-based, human
Set-up: RFU PODN (11730768_x_at) / Fold change /veh PODN (11730768_x_at) / RFU LINC00158 (11744669_a_at) / Fold change /veh LINC00158 (11744669_a_at) / RFU DUSP10 (11751237_a_at) / Fold change /veh DUSP10 (11751237_a_at) / RFU ID3 (11757404_x_at) / Fold change /veh ID3 (11757404_x_at) / RFU PLEKHG5 (11737974_s_at) / Fold change /veh PLEKHG5 (11737974_s_at) / RFU LRRC4B (11730491_at) / Fold change /veh LRRC4B (11730491_at) / RFU GIMAP4 (11747438_a_at) / Fold change /veh GIMAP4 (11747438_a_at) / RFU KRT8 (11758183_x_at) / Fold change /veh KRT8 (11758183_x_at) / RFU CNN1 (11734310_a_at) / Fold change /veh CNN1 (11734310_a_at) / RFU VPS37D (11726825_at) / Fold change /veh VPS37D (11726825_at) / RFU C10orf10 (11716522_x_at) / Fold change /veh C10orf10 (11716522_x_at) / RFU KIR2DL2 /// KIR2DL4 /// KIR2DL5A /// KIR2DL5B /// KIR2DS1 /// KIR2DS2 /// KIR2DS3 /// KIR2DS4 /// KIR3DL3 /// KIR3DL3 /// KIR3DS1 (11738374_at) / Fold change /veh KIR2DL2 /// KIR2DL4 /// KIR2DL5A /// KIR2DL5B /// KIR2DS1 /// KIR2DS2 /// KIR2DS3 /// KIR2DS4 /// KIR3DL3 /// KIR3DL3 /// KIR3DS1 (11738374_at) / RFU C1QL1 (11718748_at) / Fold change /veh C1QL1 (11718748_at) / RFU TMPRSS4 (11747572_a_at) / Fold change /veh TMPRSS4 (11747572_a_at) / RFU HAMP (11756126_x_at) / Fold change /veh HAMP (11756126_x_at) / RFU RNFT2 (11725882_a_at) / Fold change /veh RNFT2 (11725882_a_at) / RFU NR4A2 (11747474_a_at) / Fold change /veh NR4A2 (11747474_a_at) / RFU ABCC12 (11746883_a_at) / Fold change /veh ABCC12 (11746883_a_at) / RFU TMEM136 (11760407_x_at) / Fold change /veh TMEM136 (11760407_x_at) / RFU CLDN22 /// WWC2 (11732394_at) / Fold change /veh CLDN22 /// WWC2 (11732394_at) / RFU HLA-DPB1 (11760878_x_at) / Fold change /veh HLA-DPB1 (11760878_x_at) / RFU SPINT1 (11716480_a_at) / Fold change /veh SPINT1 (11716480_a_at) / RFU GAP43 (11754022_s_at) / Fold change /veh GAP43 (11754022_s_at) / RFU A4GNT (11735810_at) / Fold change /veh A4GNT (11735810_at) / RFU PRB3 (11715151_x_at) / Fold change /veh PRB3 (11715151_x_at) / RFU TUBB4B (11761932_at) / Fold change /veh TUBB4B (11761932_at) / RFU CAPN14 (11732068_a_at) / Fold change /veh CAPN14 (11732068_a_at) / RFU TMCC2 (11721928_a_at) / Fold change /veh TMCC2 (11721928_a_at) / RFU IRGQ (11745062_a_at) / Fold change /veh IRGQ (11745062_a_at) / RFU FAM174B (11720279_a_at) / Fold change /veh FAM174B (11720279_a_at) / RFU TMPRSS4 (11748680_a_at) / Fold change /veh TMPRSS4 (11748680_a_at) / RFU FAM212B (11763350_a_at) / Fold change /veh FAM212B (11763350_a_at) / RFU PLEKHG5 (11743358_a_at) / Fold change /veh PLEKHG5 (11743358_a_at) / RFU ZSCAN30 (11745921_a_at) / Fold change /veh ZSCAN30 (11745921_a_at) / RFU CMKLR1 (11741424_a_at) / Fold change /veh CMKLR1 (11741424_a_at) / RFU LOC101060620 /// MAPK8IP1 (11723275_at) / Fold change /veh LOC101060620 /// MAPK8IP1 (11723275_at) / RFU SPTSSB (11747773_x_at) / Fold change /veh SPTSSB (11747773_x_at) / RFU PRSS12 (11739890_at) / Fold change /veh PRSS12 (11739890_at) / RFU BIN1 (11741810_x_at) / Fold change /veh BIN1 (11741810_x_at) / RFU WNT11 (11732464_a_at) / Fold change /veh WNT11 (11732464_a_at) / RFU C10orf10 (11716521_a_at) / Fold change /veh C10orf10 (11716521_a_at) / RFU C5orf56 (11738089_at) / Fold change /veh C5orf56 (11738089_at) / RFU CYB561 (11721691_x_at) / Fold change /veh CYB561 (11721691_x_at) / RFU ANKRD19P (11752326_a_at) / Fold change /veh ANKRD19P (11752326_a_at) / RFU OR2T12 /// OR2T33 /// OR2T8 (11738714_s_at) / Fold change /veh OR2T12 /// OR2T33 /// OR2T8 (11738714_s_at) / RFU VCAN (11748164_a_at) / Fold change /veh VCAN (11748164_a_at) / RFU JSRP1 (11732532_at) / Fold change /veh JSRP1 (11732532_at) / RFU KRTAP10-11 (11738290_x_at) / Fold change /veh KRTAP10-11 (11738290_x_at) / RFU MYO3A (11730013_a_at) / Fold change /veh MYO3A (11730013_a_at) / RFU EBF3 (11725865_a_at) / Fold change /veh EBF3 (11725865_a_at) / RFU CAMK2N1 (11719241_x_at) / Fold change /veh CAMK2N1 (11719241_x_at) / RFU C5orf56 (11738088_a_at) / Fold change /veh C5orf56 (11738088_a_at) / RFU OLFML3 (11715873_a_at) / Fold change /veh OLFML3 (11715873_a_at) / RFU LOC100653217 /// NTM (11731650_a_at) / Fold change /veh LOC100653217 /// NTM (11731650_a_at) / RFU MAPK11 (11762145_a_at) / Fold change /veh MAPK11 (11762145_a_at) / RFU FIZ1 (11724087_x_at) / Fold change /veh FIZ1 (11724087_x_at) / RFU OASL (11726364_x_at) / Fold change /veh OASL (11726364_x_at) / RFU SOX15 (11748057_x_at) / Fold change /veh SOX15 (11748057_x_at) / RFU CD79A (11719716_a_at) / Fold change /veh CD79A (11719716_a_at) / RFU HIST1H1D (11736915_at) / Fold change /veh HIST1H1D (11736915_at) / RFU CASKIN2 (11723855_a_at) / Fold change /veh CASKIN2 (11723855_a_at) / RFU LOC730098 (11760151_x_at) / Fold change /veh LOC730098 (11760151_x_at) / RFU OR4N2 (11742367_at) / Fold change /veh OR4N2 (11742367_at) / RFU PRRT2 (11749266_a_at) / Fold change /veh PRRT2 (11749266_a_at) / RFU SNX32 (11753110_a_at) / Fold change /veh SNX32 (11753110_a_at) / RFU CDHR5 (11726645_a_at) / Fold change /veh CDHR5 (11726645_a_at) / RFU RCAN1 (11760418_a_at) / Fold change /veh RCAN1 (11760418_a_at) / RFU FAM167A (11723789_a_at) / Fold change /veh FAM167A (11723789_a_at) / RFU FAM26E (11764081_at) / Fold change /veh FAM26E (11764081_at) / RFU ISYNA1 (11749810_s_at) / Fold change /veh ISYNA1 (11749810_s_at) / RFU ACY1 (11761880_at) / Fold change /veh ACY1 (11761880_at) / RFU 11764098_at / Fold change /veh 11764098_at / RFU SAMD14 (11745864_x_at) / Fold change /veh SAMD14 (11745864_x_at) / RFU NPB (11741838_a_at) / Fold change /veh NPB (11741838_a_at) / RFU TMPRSS6 (11731388_a_at) / Fold change /veh TMPRSS6 (11731388_a_at) / RFU KRTAP10-2 (11738614_at) / Fold change /veh KRTAP10-2 (11738614_at) / RFU ARHGAP8 /// PRR5-ARHGAP8 (11727945_x_at) / Fold change /veh ARHGAP8 /// PRR5-ARHGAP8 (11727945_x_at) / RFU KRTAP5-7 /// NADSYN1 (11734609_at) / Fold change /veh KRTAP5-7 /// NADSYN1 (11734609_at) / RFU RASL12 (11751679_a_at) / Fold change /veh RASL12 (11751679_a_at) / RFU CDKN2B (11736163_a_at) / Fold change /veh CDKN2B (11736163_a_at) / RFU PRF1 (11729649_at) / Fold change /veh PRF1 (11729649_at) / RFU, ZNF638 /// ZNF638-IT1 / Fold change vs veh, ZNF638 /// ZNF638-IT1 / RFU, PANK3 / Fold change vs veh, PANK3 / RFU, SH3YL1 / Fold change vs veh, SH3YL1 / RFU, ZEB2 / Fold change vs veh, ZEB2 / RFU, NRIP1 / Fold change vs veh, NRIP1 / RFU, PTTG1IP / Fold change vs veh, PTTG1IP / RFU, CAPN2 / Fold change vs veh, CAPN2 / RFU, MED14 / Fold change vs veh, MED14 / RFU, SNORA58 / Fold change vs veh, SNORA58 / RFU, C1orf63 / Fold change vs veh, C1orf63 / RFU, LRRFIP1 / Fold change vs veh, LRRFIP1 / RFU, NDUFAF7 / Fold change vs veh, NDUFAF7 / RFU, SLC12A2 / Fold change vs veh, SLC12A2 / RFU, IBTK / Fold change vs veh, IBTK / RFU, ESF1 / Fold change vs veh, ESF1 / Fold change vs veh, TMEM50B / RFU, TAOK1 / Fold change vs veh, TAOK1 / RFU, ACBD3 / Fold change vs veh, ACBD3 / RFU, TMA16 / Fold change vs veh, TMA16 / RFU, RWDD3 / Fold change vs veh, RWDD3 / RFU, BCAT1 / Fold change vs veh, BCAT1 / RFU, EDEM3 / Fold change vs veh, EDEM3 / RFU, TMEM33 / Fold change vs veh, TMEM33 / RFU, WDR75 / Fold change vs veh, WDR75 / RFU, AHCTF1 / Fold change vs veh, AHCTF1 / RFU, TFRC / Fold change vs veh, TFRC / RFU, ZDHHC17 / Fold change vs veh, ZDHHC17 / RFU, NOM1 / Fold change vs veh, NOM1 / RFU, ARL8B / Fold change vs veh, ARL8B / RFU, ZBTB11 / Fold change vs veh, ZBTB11 / RFU, TAMM41 / Fold change vs veh, TAMM41 / RFU, KIAA1704 /// LOC100996395 / Fold change vs veh, KIAA1704 /// LOC100996395 / RFU, ING1 / Fold change vs veh, ING1 / RFU, TRMT61B / Fold change vs veh, TRMT61B / RFU, FUBP3 / Fold change vs veh, FUBP3 / RFU, TP53 / Fold change vs veh, TP53 / RFU, TNKS2 / Fold change vs veh, TNKS2 / RFU, ZFP14 / Fold change vs veh, ZFP14 / RFU, ACTR2 / Fold change vs veh, ACTR2 / RFU, PPP3R1 / Fold change vs veh, PPP3R1 / RFU, PIK3R1 / Fold change vs veh, PIK3R1 / RFU, HNRNPA1 / Fold change vs veh, HNRNPA1 / RFU, RNF170 / Fold change vs veh, RNF170 / RFU, ZNF28 / Fold change vs veh, ZNF28 / RFU, RNGTT / Fold change vs veh, RNGTT / RFU, OGT / Fold change vs veh, OGT / RFU, BRD1 / Fold change vs veh, BRD1 / RFU, MARS / Fold change vs veh, MARS / RFU, ZNF655 / Fold change vs veh, ZNF655 / RFU, FAHD1 / Fold change vs veh, FAHD1 / RFU, BDP1 / Fold change vs veh, BDP1 / RFU, LRRCC1 / Fold change vs veh, LRRCC1 / RFU, ARID1A / Fold change vs veh, ARID1A / RFU, ZNF146 / Fold change vs veh, ZNF146 / RFU, ZNF330 / Fold change vs veh, ZNF330 / RFU, GPN3 / Fold change vs veh, GPN3 / RFU, C9orf123 / Fold change vs veh, C9orf123 / RFU, N4BP2L2 / Fold change vs veh, N4BP2L2 / RFU, ARFIP1 / Fold change vs veh, ARFIP1 / RFU, FAM179B / Fold change vs veh, FAM179B / RFU, BCL10 / Fold change vs veh, BCL10 / RFU, UHRF1BP1L / Fold change vs veh, UHRF1BP1L / RFU, BET1 / Fold change vs veh, BET1 / RFU, CNOT2 / Fold change vs veh, CNOT2 / RFU, ZNF268 / Fold change vs veh, ZNF268 / Fold change vs veh, ZNF507 / RFU, DGCR2 / Fold change vs veh, DGCR2 / RFU, WDSUB1 / Fold change vs veh, WDSUB1 / Fold change vs veh, HSP90B1 /// MIR3652 / RFU, ADSS / Fold change vs veh, ADSS / RFU, GK / Fold change vs veh, GK / RFU, ZNF148 / Fold change vs veh, ZNF148 / RFU, TAF9 / Fold change vs veh, TAF9 / RFU, SLC1A5 / Fold change vs veh, SLC1A5 / RFU, SLMO2 / Fold change vs veh, SLMO2 / RFU, ABCC4 / Fold change vs veh, ABCC4 / RFU, LOC101060439 /// RAP1B / Fold change vs veh, LOC101060439 /// RAP1B / RFU, RFX7 / Fold change vs veh, RFX7 / RFU, GTPBP10 / Fold change vs veh, GTPBP10 / RFU, CNEP1R1 / Fold change vs veh, CNEP1R1 / RFU, BIVM-ERCC5 /// ERCC5 / Fold change vs veh, BIVM-ERCC5 /// ERCC5 / RFU, ILF3 / Fold change vs veh, ILF3 / RFU 11762660_at / Fold change /veh 11762660_at / RFU VCAN (11757783_s_at) / Fold change /veh VCAN (11757783_s_at) / RFU DDX43 (11728927_at) / Fold change /veh DDX43 (11728927_at) / RFU KRT8 (11758188_x_at) / Fold change /veh KRT8 (11758188_x_at) / RFU NKD1 (11759106_at) / Fold change /veh NKD1 (11759106_at) / RFU SRD5A1 (11742802_a_at) / Fold change /veh SRD5A1 (11742802_a_at) / RFU TPSAB1 /// TPSB2 (11721975_s_at) / Fold change /veh TPSAB1 /// TPSB2 (11721975_s_at) / RFU GSTM3 (11746129_a_at) / Fold change /veh GSTM3 (11746129_a_at) / RFU IL23R (11737362_x_at) / Fold change /veh IL23R (11737362_x_at) / RFU TMEM51 (11727254_a_at) / Fold change /veh TMEM51 (11727254_a_at) / RFU PIWIL2 (11732686_x_at) / Fold change /veh PIWIL2 (11732686_x_at) / RFU ORM1 (11744905_x_at) / Fold change /veh ORM1 (11744905_x_at) / RFU CCDC152 (11743942_at) / Fold change /veh CCDC152 (11743942_at) / RFU ECM1 (11717891_a_at) / Fold change /veh ECM1 (11717891_a_at) / RFU IL23R (11748794_a_at) / Fold change /veh IL23R (11748794_a_at) / RFU TNFAIP8L3 (11732012_x_at) / Fold change /veh TNFAIP8L3 (11732012_x_at) / RFU MBOAT4 (11741988_at) / Fold change /veh MBOAT4 (11741988_at) / RFU 11764193_at / Fold change /veh 11764193_at / RFU TMEM53 (11763286_at) / Fold change /veh TMEM53 (11763286_at) / RFU MAGEB2 (11727129_at) / Fold change /veh MAGEB2 (11727129_at) / RFU TMEM200A (11744735_a_at) / Fold change /veh TMEM200A (11744735_a_at) / RFU CCDC152 (11751479_a_at) / Fold change /veh CCDC152 (11751479_a_at) / RFU FAM211A (11726209_a_at) / Fold change /veh FAM211A (11726209_a_at) / RFU RGS16 (11746705_a_at) / Fold change /veh RGS16 (11746705_a_at) / RFU VCAN (11755009_s_at) / Fold change /veh VCAN (11755009_s_at) / RFU RHOB (11743442_s_at) / Fold change /veh RHOB (11743442_s_at) / RFU RGS16 (11720943_a_at) / Fold change /veh RGS16 (11720943_a_at) / RFU RGS16 (11720944_at) / Fold change /veh RGS16 (11720944_at) / RFU, VPS4B / Fold change vs veh, VPS4B / RFU, CREB1 / Fold change vs veh, CREB1 / RFU, DNAJC13 / Fold change vs veh, DNAJC13 / RFU, GNAQ / Fold change vs veh, GNAQ / RFU, CDK5R1 / Fold change vs veh, CDK5R1 / RFU, ZRANB3 / Fold change vs veh, ZRANB3 / RFU, CUL4A / Fold change vs veh, CUL4A / RFU, CCNY / Fold change vs veh, CCNY / RFU, UFL1 / Fold change vs veh, UFL1 / RFU, COG3 / Fold change vs veh, COG3 / RFU, DIAPH2 / Fold change vs veh, DIAPH2 / RFU, SKA2 / Fold change vs veh, SKA2 / RFU, AFF3 / Fold change vs veh, AFF3 / RFU, LMF1 / Fold change vs veh, LMF1 / RFU, IPO11 / Fold change vs veh, IPO11 / RFU, DFFB / Fold change vs veh, DFFB / RFU, FOXP1 / Fold change vs veh, FOXP1 / RFU, CARD8 / Fold change vs veh, CARD8 / RFU, STRN3 / Fold change vs veh, STRN3 / RFU, ADK / Fold change vs veh, ADK / RFU, RASSF2 / Fold change vs veh, RASSF2 / RFU, WIPF1 / Fold change vs veh, WIPF1 / RFU, LARP1B / Fold change vs veh, LARP1B / RFU, RASA1 / Fold change vs veh, RASA1 / RFU, RB1 / Fold change vs veh, RB1 / RFU, PPFIA1 / Fold change vs veh, PPFIA1 / RFU, MAT2A / Fold change vs veh, MAT2A / RFU, CCT5 / Fold change vs veh, CCT5 / RFU, WDR92 / Fold change vs veh, WDR92 / RFU, CUX1 / Fold change vs veh, CUX1 / RFU, TTC7A / Fold change vs veh, TTC7A / RFU, TMEM135 / Fold change vs veh, TMEM135 / RFU, DEPTOR / Fold change vs veh, DEPTOR / RFU, CPM / Fold change vs veh, CPM / RFU, DNAJB6 / Fold change vs veh, DNAJB6 / RFU, CACNA2D3 / Fold change vs veh, CACNA2D3 / RFU, DTX4 / Fold change vs veh, DTX4 / RFU, TFCP2 / Fold change vs veh, TFCP2 / RFU, GMCL1 /// GMCL1P1 / Fold change vs veh, GMCL1 /// GMCL1P1 / RFU, AEBP2 / Fold change vs veh, AEBP2 / RFU, SNHG1 /// SNORD22 /// SNORD25 /// SNORD26 /// SNORD27 /// SNORD28 /// SNORD29 /// SNORD31 / Fold change vs veh, SNHG1 /// SNORD22 /// SNORD25 /// SNORD26 /// SNORD27 /// SNORD28 /// SNORD29 /// SNORD31 / Fold change (Aza/veh), C12orf56 (ProbeSet 11735607_a_at) / Fold change (ACY-1035/veh), C12orf56 (ProbeSet 11735607_a_at) / Fold change (Aza/veh), FGFR1OP (ProbeSet 11751329_s_at) / Fold change (ACY-1035/veh), FGFR1OP (ProbeSet 11751329_s_at) / Fold change (Aza/veh), VPS36 (ProbeSet 11739960_a_at) / Fold change (ACY-1035/veh), VPS36 (ProbeSet 11739960_a_at) / RFU SYPL1 (11715823_x_at) / Fold change /veh SYPL1 (11715823_x_at) / RFU IGFBP7 (11715501_s_at) / Fold change /veh IGFBP7 (11715501_s_at) / RFU REEP3 (11722064_at) / Fold change /veh REEP3 (11722064_at) / RFU IGLL1 (11728026_x_at) / Fold change /veh IGLL1 (11728026_x_at): dose or concentration left out as unconfirmed
Conditions: MV-4-11 cells, 48 hours

SMILES: Nc1ncn([C@@H]2O[C@H](CO)[C@@H](O)[C@H]2O)c(=O)n1 [azacitidine]
- Fold change /veh KRTAP10-11 (11738290_x_at): 1.14

Reference: paper PMC5218480 (PLoS ONE, 2017)
